In patent US20220098203A1 (priority 2018, published 2022):
Like-named read-outs stand apart in the source and are kept apart here.

Legend:
MAT2A homodimer = molecular target: T1, MAT2A homodimer (Homo sapiens, UniProt P31153); assay: MAT2A biochemical assay (liberated phosphate, PiColorLock Gold); details: Table 5a; MAT2A biochemical assay; read-out: Enzyme Inhibition
T1 construct: inferred from the Ni sepharose purification and imidazole elution; made in house; host or cells: SF9 insect cells, recombinant baculovirus (Bac to Bac, pFASTBAC1)
Outline: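 Readout is liberated phosphate (PiColorLock Gold), stoichiometric with SAM production, quantified against a potassium phosphate standard curve. Enzyme: recombinant MAT2A homodimer from Sf9, equilibrated 60 min at 25 °C with compound before 60 min reaction with substrate mix containing 500 μM ATP and 400 μM L-methionine.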

[1] = test system: SAM in HCT116 MTAP-deleted cells; assay: Cellular assay of target engagement (SAM), LC-MS/MS; assay type: cell-based, human; details: 72 h, read-out: Cell 72 h SAM Inhibition (MTAP −/−)
Outline: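 Target engagement was read as intracellular SAM, measured by LC-MS/MS with d3-SAM as internal standard in methanol/acetic acid extracts. These came from MTAP-deleted HCT116 colon carcinoma cells exposed to inhibitor for 72 hrs.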

HCT116 MTAP-/- = assay: Inhibition of cellular proliferation (Cell Titer Glo), HCT116 MTAP-/-; assay type: cell-based, human; details: 4 days, read-out: 4 Day Relative Growth Inhibition (MTAP −/−)
Outline: (§1)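 After 4 days of compound exposure at 37 °C, starting 24 h after plating, growth of the MTAP-wildtype and MTAP-deleted HCT116 pair was measured as ATP luminescence (CellTiter-Glo). The proliferation index was signal minus no-cell blank, divided by blank-corrected 0.2% DMSO control.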

HCT116 MTAP+/+ = assay: Inhibition of cellular proliferation (Cell Titer Glo), HCT116 MTAP+/+; assay type: cell-based; details: Homo sapiens, HCT-116, 96 h, Table 5a, 4 days, read-out: 4 Day Relative Growth Inhibition (MTAP +/+)
Outline: as §1

[2] = Homo sapiens, HCT-116, Table 5a
[3] = Homo sapiens, HCT-116, 96 h, Table 5a
[4] = Table 6, select pairs of compounds

T1 sequence (P31153 whole entry): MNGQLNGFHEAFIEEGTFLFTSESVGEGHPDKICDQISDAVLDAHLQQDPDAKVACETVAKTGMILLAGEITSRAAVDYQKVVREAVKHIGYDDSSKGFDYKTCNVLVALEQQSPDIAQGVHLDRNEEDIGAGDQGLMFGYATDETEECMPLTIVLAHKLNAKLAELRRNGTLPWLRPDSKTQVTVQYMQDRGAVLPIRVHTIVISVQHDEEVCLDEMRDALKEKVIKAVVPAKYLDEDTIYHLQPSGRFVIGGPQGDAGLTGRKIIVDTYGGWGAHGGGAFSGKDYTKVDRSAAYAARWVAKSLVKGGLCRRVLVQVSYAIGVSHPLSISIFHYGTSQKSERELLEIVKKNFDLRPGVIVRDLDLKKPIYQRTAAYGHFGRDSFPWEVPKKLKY

| Structure (SMILES) | IC50 (MAT2A homodimer) [nM] | IC50 [1, 2] [nM] | IC50 (HCT116 MTAP-/-; [3]) [nM] | IC50 (HCT116 MTAP+/+) [nM] | IC50 [1, 4] [nM] | IC50 (HCT116 MTAP-/-; [4]) [nM] |
| --- | --- | --- | --- | --- | --- | --- |
| COc1ccc(N2Cc3cnc(NCC(F)(F)F)nc3N(c3ccc(Cl)cc3)C2=O)cc1 [Example 252, 1-(4-chlorophenyl)-3-(4-methoxyphenyl)-7-((2,2,2-trifluoroethyl)amino)-3,4-dihydropyrimido[4,5-d]pyrimidin-2(1H)-one] | 100 to 1000 | 100 to 1000 | > 1000 | > 1000 |  |  |
| COc1ccc(N2Cc3cnc(NCC(F)(F)F)nc3N(c3ccc(OC)cc3)C2=O)cc1 [Example 255, 1,3-bis(4-methoxyphenyl)-7-((2,2,2-trifluoroethyl)amino)-3,4-dihydropyrimido[4,5-d]pyrimidin-2(1H)-one] | < 100 | 100 to 1000 | 100 to 1000 | > 1000 |  |  |
| COc1ccc(N2Cc3cnc(NCC(F)(F)F)nc3N(c3ccc(OC)nc3)C2=O)cc1 [Example 261] | 100 to 1000 | 100 to 1000 | > 1000 | > 1000 |  |  |
| Cn1cc2cc(N3Cc4ccc(NCC(F)(F)F)nc4N(c4ccc(OC(F)F)cc4)C3=O)ccc2n1 [Example 264, 1-(4-(difluoromethoxy)phenyl)-3-(2-methyl-2H-indazol-5-yl)-7-((2,2,2-trifluoroethyl)amino)-3,4-dihydropyrido[2,3-d]pyrimidin-2(1H)-one] | < 100 | < 100 | < 100 | > 1000 | < 100 | < 100 |
| Cn1cc2cc(N3Cc4cnc(NCC(F)(F)F)cc4N(c4ccc(OC(F)F)cc4)C3=O)ccc2n1 [Example 268] | < 100 | 100 to 1000 | > 1000 | > 1000 |  |  |
| CCNc1ccc2c(n1)N(c1ccc(OC(F)F)cc1)C(=O)N(c1ccc3nn(C)cc3c1)C2 [Example 269] | < 100 | 100 to 1000 | 100 to 1000 | > 1000 | 100 to 1000 | 100 to 1000 |
| Cn1cc2cc(N3Cc4ccc(OCC(F)(F)F)nc4N(c4ccc(OC(F)F)cc4)C3=O)ccc2n1 [Example 270] | < 100 | < 100 | 100 to 1000 | > 1000 |  |  |
| Cn1cnc2ccc(N3Cc4ccc(NCC(F)(F)F)nc4N(c4ccc(OC(F)F)cc4)C3=O)cc21 [Example 271] | < 100 | < 100 | < 100 | < 100 | < 100 | < 100 |
| CCOc1ccc2c(n1)N(c1ccc(OC(F)F)cc1)C(=O)N(c1ccc3ncn(C)c3c1)C2 [Example 272] | < 100 | < 100 | 100 to 1000 | > 1000 |  |  |
| Cn1cnc2ccc(N3Cc4ccc(OCC(F)(F)F)nc4N(c4ccc(OC(F)F)cc4)C3=O)cc21 [Example 273] | < 100 | 100 to 1000 | 100 to 1000 | > 1000 |  |  |
| CCNc1ccc2c(n1)N(c1ccc(OC(F)F)cc1)C(=O)N(c1ccc3ncn(C)c3c1)C2 [Example 274] | < 100 | < 100 | < 100 | > 1000 | < 100 | < 100 |
| CCOc1ccc2c(n1)N(c1ccc(OC(F)F)nc1)C(=O)N(c1ccc3nn(C)cc3c1)C2 [Example 275] | < 100 | 100 to 1000 | 100 to 1000 | 100 to 1000 |  |  |
| CCOc1ccc2c(n1)N(c1ccc(CF)nc1)C(=O)N(c1ccc3nn(C)cc3c1)C2 [Example 282, 7-ethoxy-1-(6-(fluoromethyl)pyridin-3-yl)-3-(2-methyl-2H-indazol-5-yl)-3,4-dihydropyrido[2,3-d]pyrimidin-2(1H)-one] | < 100 | < 100 | < 100 | > 1000 |  |  |
| Cn1cc2cc(N3Cc4ccc(OCC(F)F)nc4N(c4ccc5ocnc5c4)C3=O)ccc2n1 [Example 283, 1-(benzo[d]oxazol-5-yl)-7-(2,2-difluoroethoxy)-3-(2-methyl-2H-indazol-5-yl)-3,4-dihydropyrido[2,3-d]pyrimidin-2(1H)-one] | < 100 | 100 to 1000 | 100 to 1000 | 100 to 1000 |  |  |
| Cn1cc2cc(N3Cc4cc(F)c(OCC(F)F)cc4N(c4ccc(OC(F)F)cc4)C3=O)ccc2n1 [Example 285, 7-(2,2-difluoroethoxy)-1-(4-(difluoromethoxy)phenyl)-6-fluoro-3-(2-methyl-2H-indazol-5-yl)-3,4-dihydroquinazolin-2(1H)-one] | < 100 | 100 to 1000 | 100 to 1000 | > 1000 |  |  |
| CCOc1ccc2c(c1)N(c1ccc(OC(F)F)cc1)C(=O)N(c1ccc3nn(C)cc3c1)C2 [Example 287, 1-[4-(difluoromethoxy)phenyl]-7-ethoxy-3-(2-methyl-2H-indazol-5-yl)-1,2,3,4-tetrahydroquinazolin-2-one] | < 100 | 100 to 1000 | 100 to 1000 | 100 to 1000 |  |  |
| Cn1cc2cc(N3Cc4ccc(NCC(F)(F)F)cc4N(c4ccc(OC(F)F)cc4)C3=O)ccc2n1 [Example 288] | < 100 | 100 to 1000 | 100 to 1000 | > 1000 |  |  |
| CCOc1cnc2c(c1)N(c1ccc(OC(F)F)cc1)C(=O)N(c1ccc(OC)cc1)C2 [Example 289, 1-(4-(difluoromethoxy)phenyl)-7-ethoxy-3-(4-methoxyphenyl)-3,4-dihydropyrido[3,2-d]pyrimidin-2(1H)-one] | 100 to 1000 | > 1000 | > 1000 | > 1000 |  |  |
| CCOc1cnc2c(c1)N(c1ccc(OC(F)F)cc1)C(=O)N(c1ccc3nn(C)cc3c1)C2 [Example 290] | < 100 | 100 to 1000 | 100 to 1000 | > 1000 |  |  |
| CCOc1cnc2c(c1)N(c1ccc(Cl)cc1)C(=O)N(c1ccc3nn(C)cc3c1)C2 [Example 291] | 100 to 1000 | 100 to 1000 | > 1000 | > 1000 |  |  |
| CCCc1ccc2c(n1)N(c1ccc(OC)cc1)C(=O)N(c1ccc3nn(C)cc3c1)C2 [Example 294, 1-(4-methoxyphenyl)-3-(2-methyl-2H-indazol-5-yl)-7-propyl-3,4-dihydropyrido[2,3-d]pyrimidin-2(1H)-one] | < 100 | < 100 | < 100 | > 1000 |  |  |
| Cn1cc2cc(N3Cc4ccc(OCC(F)F)nc4N(c4ccc(O)cc4)C3=O)ccc2n1 [Example 295, 7-(2,2-difluoroethoxy)-1-(4-hydroxyphenyl)-3-(2-methyl-2H-indazol-5-yl)-3,4-dihydropyrido[2,3-d]pyrimidin-2(1H)-one] | < 100 | < 100 | 100 to 1000 | > 1000 |  |  |
| [2H]C([2H])([2H])Oc1ccc(N2C(=O)N(c3ccc4nc(C)n(C)c4c3)Cc3ccc(OCC(F)F)nc32)cc1 [Example 401, 7-(2,2-difluoroethoxy)-3-(1,2-dimethyl-1H-benzo[d]imidazol-6-yl)-1-(4-(methoxy-d3)phenyl)-3,4-dihydropyrido[2,3-d]pyrimidin-2(1H)-one] | < 100 | < 100 | < 100 | > 1000 |  |  |
| [2H]C([2H])([2H])Oc1ccc(N2C(=O)N(c3ccc4nc(C)n(C)c4c3)Cc3cnc(NCC(F)(F)F)nc32)cc1 [Example 402, 3-(1,2-dimethyl-1H-benzo[d]imidazol-6-yl)-1-(4-(methoxy-d3)phenyl)-7-((2,2,2-trifluoroethyl)amino)-3,4-dihydropyrimido[4,5-d]pyrimidin-2(1H)-one] | < 100 | < 100 | < 100 | 100 to 1000 |  |  |
